{"source": "patent US11571421B2", "about": "“GABAA positive allosteric modulator compounds for treatment of itch and/or dermatitis” (NeuroCycle Therapeutics, Inc., priority 2018, dated 2023)", "system": "Chloroquine (CQ)-Induced Itch Model in Male C57BL/6 Mice", "test": "Chloroquine Induced Itch Model, PF-06372865 (Example 1)", "format": "in vivo", "procedure": "PF-06372865 was evaluated as an antipruritic and/or antidermatitis agent using a Chloroquine Induced Itch Model in male C57BL/6 mice.\nMale C57BL/6 Mice (8-10 weeks) were used in the study. Animals were procured from CRL, Hylasco (CPSCEA registered animal supplier).\nMice were housed one per cage and maintained at controlled environmental conditions with 12-h light and dark cycles. The temperature and humidity of the room were maintained between 22±3° C. and 55±5%, respectively. The maximum and minimum temperature and relative humidity in the experimental rooms were recorded once daily. […]\nPF-06372865 was weighed into a clean mortar. Liquefied Solutol (i.e., Polyoxyl 15 Hydroxystearate) was added drop wise and triturated using a pestle for 2-3 minutes, then Glycerol formal was added and mixed in same fashion. The volume was made up by slowly adding the required volume of water. The resulting mixture was mixed well using mild vortexing to provide a homogeneous suspension. (Details in below chart)\n27 mg of chloroquine phosphate was weighed in a clean glass container. 6 mL PBS was added, and the resulting mixture was mixed well using mild vortexing to form the desired strength solution.\nThe right-side cheek area of all the animals was shaved with animal clippers 1 day prior to the experiment. Animals were randomized into different treatment groups (n=9/group) based on body weight to avoid variability in weights across groups. NCT10004 Phosphate and PF-06372865 formulations and chloroquine phosphate solution were prepared on the day of the experiment.\nAnimals were dosed per oral with respective treatment group using a dose volume of 10 ml/kg. Times of dosing were recorded. Immediately after compound treatment, animals were kept in an empty transparent chamber (23 cm length×17 cm width) for acclimatization and observation.\nNinety (90) minutes post compound dosing, 50-μl of chloroquine phosphate solution (a 200-μg dose) was injected intracutaneously into the animal's right cheek. Animals were returned to the same chamber for observation. Animals were observed by an observer blind to the treatment group for a period of 30 minutes post chloroquine injection. Total number of bouts of scratching directed at the ipsilateral cheek were recorded for 30 minutes.", "key": {"[1]": {"settings": "0.3 mg/kg PO, individual animals"}}, "note": "Several values for one entry are separate records, joined by “and”; a condition that tells them apart may be missing. Identical values can stand only once.", "data": [{"smiles": "CCn1cnc2c(-c3ccc(F)c(-c4ccc(S(=O)(=O)CC)cc4OC)c3)cnnc21", "note": "[PF-06372865]", "values": [{"measurement": "Scratching bouts (Nos.) in 30 min, 0-5 min", "setting": "0.3 mg/kg PO, MEAN, N=9", "value": 2.22, "unit": "Nos."}, {"measurement": "Scratching bouts (Nos.) in 30 min, 5-10 min", "setting": "0.3 mg/kg PO, MEAN, N=9", "value": 6.67, "unit": "Nos."}, {"measurement": "Scratching bouts (Nos.) in 30 min, 10-15 min", "setting": "0.3 mg/kg PO, MEAN, N=9", "value": 26.22, "unit": "Nos."}, {"measurement": "Scratching bouts (Nos.) in 30 min, 15-20 min", "setting": "0.3 mg/kg PO, MEAN, N=9", "value": 24.67, "unit": "Nos."}, {"measurement": "Scratching bouts (Nos.) in 30 min, 20-25 min", "setting": "0.3 mg/kg PO, MEAN, N=9", "value": 21.00, "unit": "Nos."}, {"measurement": "Scratching bouts (Nos.) in 30 min, 25-30 min", "setting": "0.3 mg/kg PO, MEAN, N=9", "value": 0.00, "unit": "Nos."}, {"measurement": "Total Scratching bouts", "setting": "0.3 mg/kg PO, MEAN, N=9", "value": 80.78, "unit": "Nos./30 min"}, {"measurement": "Scratching bouts (Nos.) in 30 min, 0-5 min", "setting": "[1]", "value": "0 Nos. (6×) and 1 Nos. and 15 Nos. and 4 Nos."}, {"measurement": "Scratching bouts (Nos.) in 30 min, 5-10 min", "setting": "[1]", "value": "56 Nos. and 0 Nos. (6×) and 1 Nos. and 3 Nos."}, {"measurement": "Scratching bouts (Nos.) in 30 min, 10-15 min", "setting": "[1]", "value": "47 Nos. and 0 Nos. (3×) and 19 Nos. and 46 Nos. and 76 Nos. and 21 Nos. and 27 Nos."}, {"measurement": "Scratching bouts (Nos.) in 30 min, 15-20 min", "setting": "[1]", "value": "10 Nos. and 25 Nos. (2×) and 39 Nos. and 13 Nos. and 36 Nos. and 31 Nos. and 11 Nos. and 32 Nos."}, {"measurement": "Scratching bouts (Nos.) in 30 min, 20-25 min", "setting": "[1]", "value": "0 Nos. (3×) and 49 Nos. and 33 Nos. and 27 Nos. (2×) and 24 Nos. and 29 Nos."}, {"measurement": "Scratching bouts (Nos.) in 30 min, 25-30 min", "setting": "[1]", "value": 0, "unit": "Nos."}, {"measurement": "Total Scratching bouts", "setting": "[1]", "value": "113 Nos./30 min and 74 Nos./30 min and 25 Nos./30 min and 72 Nos./30 min and 33 Nos./30 min and 110 Nos./30 min and 149 Nos./30 min and 56 Nos./30 min and 95 Nos./30 min"}, {"measurement": "Scratching bouts (Nos.) in 30 min, 0-5 min", "setting": "1 mg/kg PO, MEAN, N=9", "value": 1.22, "unit": "Nos."}, {"measurement": "Scratching bouts (Nos.) in 30 min, 5-10 min", "setting": "1 mg/kg PO, MEAN, N=9", "value": 20.56, "unit": "Nos."}, {"measurement": "Scratching bouts (Nos.) in 30 min, 10-15 min", "setting": "1 mg/kg PO, MEAN, N=9", "value": 9.11, "unit": "Nos."}, {"measurement": "Scratching bouts (Nos.) in 30 min, 15-20 min", "setting": "1 mg/kg PO, MEAN, N=9", "value": 23.11, "unit": "Nos."}, {"measurement": "Scratching bouts (Nos.) in 30 min, 20-25 min", "setting": "1 mg/kg PO, MEAN, N=9", "value": 8.33, "unit": "Nos."}, {"measurement": "Scratching bouts (Nos.) in 30 min, 25-30 min", "setting": "1 mg/kg PO, MEAN, N=9", "value": 8.11, "unit": "Nos."}, {"measurement": "Total Scratching bouts", "setting": "1 mg/kg PO, MEAN, N=9", "value": 70.44, "unit": "Nos./30 min"}, {"measurement": "Scratching bouts (Nos.) in 30 min, 0-5 min", "setting": "1 mg/kg PO, individual animals", "value": "0 Nos. (6×) and 1 Nos. and 8 Nos. and 2 Nos."}, {"measurement": "Scratching bouts (Nos.) in 30 min, 5-10 min", "setting": "1 mg/kg PO, individual animals", "value": "22 Nos. and 0 Nos. (2×) and 18 Nos. (2×) and 13 Nos. and 62 Nos. and 49 Nos. and 3 Nos."}, {"measurement": "Scratching bouts (Nos.) in 30 min, 10-15 min", "setting": "1 mg/kg PO, individual animals", "value": "9 Nos. (2×) and 0 Nos. (3×) and 13 Nos. and 1 Nos. and 4 Nos. and 46 Nos."}, {"measurement": "Scratching bouts (Nos.) in 30 min, 15-20 min", "setting": "1 mg/kg PO, individual animals", "value": "41 Nos. and 14 Nos. and 28 Nos. (2×) and 16 Nos. and 45 Nos. and 25 Nos. and 11 Nos. and 0 Nos."}, {"measurement": "Scratching bouts (Nos.) in 30 min, 20-25 min", "setting": "1 mg/kg PO, individual animals", "value": "28 Nos. and 0 Nos. (5×) and 18 Nos. and 8 Nos. and 21 Nos."}, {"measurement": "Scratching bouts (Nos.) in 30 min, 25-30 min", "setting": "1 mg/kg PO, individual animals", "value": "6 Nos. and 25 Nos. and 4 Nos. and 0 Nos. (4×) and 14 Nos. and 24 Nos."}, {"measurement": "Total Scratching bouts", "setting": "1 mg/kg PO, individual animals", "value": "106 Nos./30 min and 39 Nos./30 min and 81 Nos./30 min and 26 Nos./30 min and 93 Nos./30 min and 95 Nos./30 min and 71 Nos./30 min and 22 Nos./30 min and 101 Nos./30 min"}, {"measurement": "Scratching bouts (Nos.) in 30 min, 0-5 min", "setting": "3 mg/kg PO, MEAN, N=9", "value": 4.89, "unit": "Nos."}, {"measurement": "Scratching bouts (Nos.) in 30 min, 5-10 min", "setting": "3 mg/kg PO, MEAN, N=9", "value": 3.89, "unit": "Nos."}, {"measurement": "Scratching bouts (Nos.) in 30 min, 10-15 min", "setting": "3 mg/kg PO, MEAN, N=9", "value": 11.44, "unit": "Nos."}, {"measurement": "Scratching bouts (Nos.) in 30 min, 15-20 min", "setting": "3 mg/kg PO, MEAN, N=9", "value": 9.89, "unit": "Nos."}, {"measurement": "Scratching bouts (Nos.) in 30 min, 20-25 min", "setting": "3 mg/kg PO, MEAN, N=9", "value": 4.33, "unit": "Nos."}, {"measurement": "Scratching bouts (Nos.) in 30 min, 25-30 min", "setting": "3 mg/kg PO, MEAN, N=9", "value": 3.44, "unit": "Nos."}, {"measurement": "Total Scratching bouts", "setting": "3 mg/kg PO, MEAN, N=9", "value": 37.89, "unit": "Nos./30 min"}, {"measurement": "Scratching bouts (Nos.) in 30 min, 0-5 min", "setting": "3 mg/kg PO, individual animals", "value": "16 Nos. and 0 Nos. (4×) and 19 Nos. and 1 Nos. and 3 Nos. and 5 Nos."}, {"measurement": "Scratching bouts (Nos.) in 30 min, 5-10 min", "setting": "3 mg/kg PO, individual animals", "value": "0 Nos. (7×) and 33 Nos. and 2 Nos."}, {"measurement": "Scratching bouts (Nos.) in 30 min, 10-15 min", "setting": "3 mg/kg PO, individual animals", "value": "44 Nos. and 4 Nos. and 0 Nos. (4×) and 10 Nos. and 16 Nos. and 29 Nos."}, {"measurement": "Scratching bouts (Nos.) in 30 min, 15-20 min", "setting": "3 mg/kg PO, individual animals", "value": "17 Nos. and 14 Nos. and 33 Nos. and 0 Nos. (4×) and 3 Nos. and 22 Nos."}]}]}
